{"source": "patent US9809623B2", "about": "“α4β7 peptide monomer and dimer antagonists” (Protagonist Therapeutics, Inc., priority 2014, dated 2017)", "note": "Numbered stars: 1 amine (or outer) side, 2 acyl side, 3 side chain; on linkers, the order of the positions; unused ones are H or OH. Bridge positions count the residues as written; N and C are the ends. Square brackets hold non-standard residues; d marks the D form. Peptide text beside a SMILES is read from it. I, II: the chains in the order shown. Bip = N[C@@H](Cc1ccc(-c2ccccc2)cc1)C(=O)O; 2Nal = N[C@@H](Cc1ccc2ccccc2c1)C(=O)O; Diglycolyl = O=C(COCC(=O)[*:2])[*:1]; NMeR = CN[C@@H](CCCNC(=N)N)C(=O)O; NMeE = CN[C@@H](CCC(=O)O)C(=O)O; β3hE = N[C@@H](CCC(=O)O)CC(=O)O; Pen = CC(C)(S)[C@H](N)C(=O)O; Dab = NCC[C@H](N)C(=O)O"}
{"target": "α4β7 (Homo sapiens, UniProt P13612+P26010)", "sequence (P13612 34-1032)": "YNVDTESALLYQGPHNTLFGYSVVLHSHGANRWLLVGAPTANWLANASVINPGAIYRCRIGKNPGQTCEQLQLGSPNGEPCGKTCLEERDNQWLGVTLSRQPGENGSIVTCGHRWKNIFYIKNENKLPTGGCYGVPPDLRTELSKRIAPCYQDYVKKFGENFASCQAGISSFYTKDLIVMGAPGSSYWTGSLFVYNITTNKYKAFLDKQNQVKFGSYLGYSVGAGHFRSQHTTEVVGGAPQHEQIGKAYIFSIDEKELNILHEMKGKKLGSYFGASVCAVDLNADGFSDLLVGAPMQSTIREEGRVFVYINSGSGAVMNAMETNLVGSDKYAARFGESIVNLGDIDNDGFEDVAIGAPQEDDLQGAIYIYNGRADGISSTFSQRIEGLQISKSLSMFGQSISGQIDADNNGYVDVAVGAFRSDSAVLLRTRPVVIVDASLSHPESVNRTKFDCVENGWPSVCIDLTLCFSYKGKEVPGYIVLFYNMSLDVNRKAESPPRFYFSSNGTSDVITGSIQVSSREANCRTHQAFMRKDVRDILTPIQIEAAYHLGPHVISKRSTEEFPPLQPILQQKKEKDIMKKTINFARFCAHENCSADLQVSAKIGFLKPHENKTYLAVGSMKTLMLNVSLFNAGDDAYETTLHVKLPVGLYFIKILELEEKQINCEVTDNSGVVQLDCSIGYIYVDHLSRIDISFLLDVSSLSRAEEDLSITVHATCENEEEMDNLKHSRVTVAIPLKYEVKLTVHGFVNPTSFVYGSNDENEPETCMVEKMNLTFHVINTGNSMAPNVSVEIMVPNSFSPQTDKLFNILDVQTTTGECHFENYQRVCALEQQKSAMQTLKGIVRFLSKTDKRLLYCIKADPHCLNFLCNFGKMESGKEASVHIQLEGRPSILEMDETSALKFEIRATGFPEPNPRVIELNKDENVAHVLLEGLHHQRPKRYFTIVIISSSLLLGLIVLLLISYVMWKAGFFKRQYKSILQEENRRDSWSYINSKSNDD", "sequence (P26010 20-798)": "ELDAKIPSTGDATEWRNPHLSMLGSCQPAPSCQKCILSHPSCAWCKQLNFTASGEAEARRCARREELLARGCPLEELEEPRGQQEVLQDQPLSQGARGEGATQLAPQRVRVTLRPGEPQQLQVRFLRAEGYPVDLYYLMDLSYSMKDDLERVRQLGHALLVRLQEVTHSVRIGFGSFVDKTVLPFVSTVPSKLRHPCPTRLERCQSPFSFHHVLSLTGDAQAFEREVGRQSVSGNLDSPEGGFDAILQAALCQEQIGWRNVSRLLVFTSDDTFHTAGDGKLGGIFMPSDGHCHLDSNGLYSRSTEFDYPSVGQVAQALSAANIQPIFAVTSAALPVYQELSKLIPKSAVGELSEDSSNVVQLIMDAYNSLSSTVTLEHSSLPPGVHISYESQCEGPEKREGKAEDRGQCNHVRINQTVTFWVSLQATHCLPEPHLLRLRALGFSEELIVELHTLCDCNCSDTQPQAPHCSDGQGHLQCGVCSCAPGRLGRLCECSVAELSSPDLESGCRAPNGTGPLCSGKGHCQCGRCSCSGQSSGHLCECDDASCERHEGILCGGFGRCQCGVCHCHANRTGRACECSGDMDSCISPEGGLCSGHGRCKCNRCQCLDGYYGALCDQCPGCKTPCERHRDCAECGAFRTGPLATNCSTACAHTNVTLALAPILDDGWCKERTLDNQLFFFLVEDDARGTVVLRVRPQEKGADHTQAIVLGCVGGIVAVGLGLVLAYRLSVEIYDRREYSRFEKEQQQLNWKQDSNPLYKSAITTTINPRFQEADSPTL", "assay": "α4β7-MAdCAM Cell Adhesion Assay (RPMI 8866 human cells)", "format": "cell-based", "design": "host or cells: RPMI 8866 human B lymphoblastoid cells", "details": "Table 3-B, Potency (α4β7); range classes; read-out: α4β7 cell (Hu) IC50", "protocol": "RPMI 8866 human cells (Sigma #95041316) were cultured in RPMI 1640 HEPES medium (Invitrogen #22400-089) supplemented with 10% serum (Fetal Bovine Serum, Invitrogen #16140-071), 1 mM sodium pyruvate (Invitrogen #11360-070), 2 mM L-glutamine (Invitrogen #25030-081) and Penicillin-Streptomycin (Invitrogen #15140-122) at 100 units of penicillin and 100 μg of streptomycin per ml. The cells were washed two times in DMEM medium (ATCC #30-2002) supplemented with 0.1% BSA, 10 mM HEPES pH 7 and 1 mM MnCl2. The cells were re-suspended in supplemented DMEM medium at a density of 4×10^6 cells/ml.\nA Nunc MaxiSorp plate was coated with rh MAdCAM-1/Fc Chimera (R&D #6065-MC) at 200 ng per well in 50 ul per well in 1×PBS and incubated at 4° C. overnight. The solution was then removed by shaking, blocked with 250 ul per well PBS containing 1% BSA, and incubated at 37° C. for 1 hr. The solution was removed by shaking. Peptides were diluted by serial dilution in a final volume of 50 ul per well (2× concentration). To each well, 50 ul of cells (200,000 cells) were added and the plate was incubated at 37° C., 5% CO2 for 30-45 min to allow cell adhesion. The wells were washed manually three times (100 ul per wash) with supplemented DMEM. After the final wash, 100 ul/well of supplemented DMEM and 10 ul/well of MTT reagent (ATTC cat#30-1010K) were added. The plate was incubated at 37° C., 5% CO2 for 2-3 hrs until a purple precipitate was visible. 100 ul of Detergent Reagent (ATTC cat#30-1010K) was added to each well. The plate was covered from the light, wrapped in Parafilm to prevent evaporation, and left overnight at room temperature in the dark. The plate was shaken for 5 min and the absorbance at 570 nm was measured. To calculate the dose response, the absorbance value of control wells not containing cells was subtracted from each test well.", "units": {"IC50": "nM"}}
{"smiles": "CC(=O)N[C@@H]1C(=O)N(C)[C@@H](CCCNC(=N)N)C(=O)N[C@@H](CO)C(=O)N[C@@H](CC(=O)O)C(=O)N[C@@H]([C@@H](C)O)C(=O)N[C@@H](Cc2ccc(O)cc2)C(=O)N[C@H](C(=O)N[C@@H](Cc2ccc3ccccc3c2)C(=O)N[C@H](CCC(=O)O)C(N)=O)C(C)(C)SSC1(C)C", "note": "[compound 164] (Ac-[Pen][NMeR]SDTY[Pen][2Nal][dE]-NH2; disulfide 1-7)", "IC50": "1000 to 10000"}
{"smiles": "CC(=O)N[C@@H]1C(=O)N(C)[C@@H](CCCNC(=N)N)C(=O)N[C@@H](CO)C(=O)N[C@@H](CC(=O)O)C(=O)N[C@@H]([C@@H](C)O)C(=O)N[C@@H](CC(C)C)C(=O)N[C@H](C(=O)N[C@@H](Cc2c[nH]c3ccccc23)C(=O)N[C@@H](CCC(=O)O)C(=O)N[C@@H](CCN)C(N)=O)C(C)(C)SSC1(C)C", "note": "[compound 61] (Ac-[Pen][NMeR]SDTL[Pen]WE[Dab]-NH2; disulfide 1-7)", "IC50": "1000 to 10000"}
{"smiles": "CC(=O)N[C@@H]1C(=O)N(C)[C@@H](CCCNC(=N)N)C(=O)N[C@@H](CO)C(=O)N[C@@H](CC(=O)O)C(=O)N[C@@H]([C@@H](C)O)C(=O)N[C@@H](CC(C)C)C(=O)N[C@H](C(=O)N[C@@H](Cc2c[nH]c3ccccc23)C(=O)N(C)[C@@H](CCC(=O)O)C(=O)N[C@H](CCCCNC(=O)COCC(=O)NCCCC[C@@H](NC(=O)[C@H](CCC(=O)O)N(C)C(=O)[C@H](Cc2c[nH]c3ccccc23)NC(=O)[C@H]2NC(=O)[C@H](CC(C)C)NC(=O)[C@H]([C@@H](C)O)NC(=O)[C@H](CC(=O)O)NC(=O)[C@H](CO)NC(=O)[C@H](CCCNC(=N)N)N(C)C(=O)[C@@H](NC(C)=O)C(C)(C)SSC2(C)C)C(N)=O)C(N)=O)C(C)(C)SSC1(C)C", "note": "[compound 31] (I: Ac-[Pen][NMeR]SDTL[Pen]W[NMeE][dK]-NH2 / II: Ac-[Pen][NMeR]SDTL[Pen]W[NMeE][dK]-NH2; disulfide I:1-I:7, II:1-II:7; linker I:10-II:10 via Diglycolyl)", "IC50": "50 to 100"}
{"smiles": "CC(=O)N[C@@H]1C(=O)N(C)[C@@H](CCCNC(=N)N)C(=O)N[C@@H](CO)C(=O)N[C@@H](CC(=O)O)C(=O)N[C@@H]([C@@H](C)O)C(=O)N[C@@H](CC(C)C)C(=O)N[C@H](C(=O)N[C@@H](Cc2ccc3ccccc3c2)C(=O)N[C@H](Cc2c[nH]cn2)C(=O)N[C@H](CCCCNC(=O)COCC(=O)NCCCC[C@@H](NC(=O)[C@@H](Cc2c[nH]cn2)NC(=O)[C@H](Cc2ccc3ccccc3c2)NC(=O)[C@H]2NC(=O)[C@H](CC(C)C)NC(=O)[C@H]([C@@H](C)O)NC(=O)[C@H](CC(=O)O)NC(=O)[C@H](CO)NC(=O)[C@H](CCCNC(=N)N)N(C)C(=O)[C@@H](NC(C)=O)C(C)(C)SSC2(C)C)C(N)=O)C(N)=O)C(C)(C)SSC1(C)C", "note": "[compound 118] (I: Ac-[Pen][NMeR]SDTL[Pen][2Nal][dH][dK]-NH2 / II: Ac-[Pen][NMeR]SDTL[Pen][2Nal][dH][dK]-NH2; disulfide I:1-I:7, II:1-II:7; linker I:10-II:10 via Diglycolyl)", "IC50": "25 to 50"}
{"smiles": "CC(=O)N[C@@H]1C(=O)N(C)[C@@H](CCCNC(=N)N)C(=O)N[C@@H](CO)C(=O)N[C@@H](CC(=O)O)C(=O)N[C@@H]([C@@H](C)O)C(=O)N[C@@H](CC(C)C)C(=O)N[C@H](C(=O)N[C@@H](Cc2ccc(-c3ccccc3)cc2)C(=O)N[C@@H](CCC(=O)O)CC(=O)N[C@H](CCCCNC(=O)COCC(=O)NCCCC[C@@H](NC(=O)C[C@H](CCC(=O)O)NC(=O)[C@H](Cc2ccc(-c3ccccc3)cc2)NC(=O)[C@H]2NC(=O)[C@H](CC(C)C)NC(=O)[C@H]([C@@H](C)O)NC(=O)[C@H](CC(=O)O)NC(=O)[C@H](CO)NC(=O)[C@H](CCCNC(=N)N)N(C)C(=O)[C@@H](NC(C)=O)C(C)(C)SSC2(C)C)C(N)=O)C(N)=O)C(C)(C)SSC1(C)C", "note": "[compound 135] (I: Ac-[Pen][NMeR]SDTL[Pen][Bip][β3hE][dK]-NH2 / II: Ac-[Pen][NMeR]SDTL[Pen][Bip][β3hE][dK]-NH2; disulfide I:1-I:7, II:1-II:7; linker I:10-II:10 via Diglycolyl)", "IC50": "< 10"}
